Measurements as given in patent US20240383856A1 (Zedira GmbH, priority 2021, published 2024).

What was measured:
[1] = target: T1, recombinant human transglutaminase 2 (Homo sapiens, UniProt P21980); assay: Transglutaminase assay (DCC-assay): incorporation of dansylcadaverine into dimethylcasein; type: biochemical; conditions: recombinant human TG2 10 nM; dansylcadaverine incorporation into dimethylcasein; read-out: IC50 TG2
T1 construct: purchased Zedira T022
T1 sequence (P21980 1-687): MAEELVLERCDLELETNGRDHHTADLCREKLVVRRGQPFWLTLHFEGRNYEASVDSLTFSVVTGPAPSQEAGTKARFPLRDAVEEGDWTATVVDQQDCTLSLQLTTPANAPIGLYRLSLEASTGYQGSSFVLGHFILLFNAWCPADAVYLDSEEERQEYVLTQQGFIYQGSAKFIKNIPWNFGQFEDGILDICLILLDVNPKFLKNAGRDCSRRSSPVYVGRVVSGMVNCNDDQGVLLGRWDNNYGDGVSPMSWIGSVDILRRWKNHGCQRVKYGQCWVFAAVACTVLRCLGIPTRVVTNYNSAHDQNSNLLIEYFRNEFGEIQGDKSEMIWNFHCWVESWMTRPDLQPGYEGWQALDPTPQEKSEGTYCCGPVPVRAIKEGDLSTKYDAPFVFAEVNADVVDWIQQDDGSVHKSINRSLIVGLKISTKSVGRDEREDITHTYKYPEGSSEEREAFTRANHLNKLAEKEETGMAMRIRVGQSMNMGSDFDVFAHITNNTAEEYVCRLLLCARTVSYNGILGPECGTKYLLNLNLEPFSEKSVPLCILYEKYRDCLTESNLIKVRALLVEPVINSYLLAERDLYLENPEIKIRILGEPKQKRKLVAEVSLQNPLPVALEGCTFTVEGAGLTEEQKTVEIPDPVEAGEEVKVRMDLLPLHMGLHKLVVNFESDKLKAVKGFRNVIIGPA
Outline: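 IC50 is the inhibitor level that blocks 50% of initial activity. Activity is the fluorescence slope (λex 330, λem 500 nm) between 20 and 30 min of a 37 °C run, relative to a 2% DMSO control. The enzyme is recombinant human tissue transglutaminase, 10 nM final, tested against a 1:2 inhibitor dilution series in a pH 8.0 mix with 10 mM CaCl2, 10 mM glutathione, 16.7 µM dansylcadaverine and 4 µM N,N-dimethylcasein.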

[2] = logD by shake flask method (octanol / PBS pH 7.4, HPLC); type: physicochemical; conditions: octanol / PBS pH 7.4, shake flask
Outline: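 LogD obtained by HPLC measurement of how the compound distributes between PBS (pH 7.4) and octanol in a shake-flask experiment.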

[3] = Caco-2 permeability assay (CacoReady kit); type: in vitro ADME; conditions: human, Caco-2, Caco-2 barrier, CacoReady kit; above 1×10^−6 cm/s classified as permeable
Outline: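 Intestinal permeability modelled with kit-supplied Caco-2 barriers, run as the maker specifies; each compound reported as Papp.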

| Compound | IC50 [1] [nM] | logD [2] | Papp [3] [×10⁻⁶ cm/s] |
| --- | --- | --- | --- |
| CNC(=O)C(=O)CC[C@H](NC(=O)c1nccn1C)C(=O)Nc1cccn(CC(=O)NC[C@@H]2CC[C@H]3C[C@@H]2C3(C)C)c1=O [II-208, (S)-N1-(1-(2-(((1S,2R,5S)-6,6-dimethylbicyclo[3.1.1]heptan-2-yl)methylamino)-2-oxoethyl)-2-oxo-1,2-dihydropyridin-3-yl)-N6-methyl-2-(1-methyl-1H-imidazole-2-carboxamido)-5-oxohexanediamide] | 400 to 2500 | 1 to 3 | < 1 |
| CCCCCNC(=O)C(=O)CC[C@H](NC(=O)c1oc2ccccc2c1C)C(=O)Nc1cccn(CC(=O)NC2C3CC4CC(C3)CC2C4)c1=O (stereo partly drawn) [II-116, (S)-N1-(1-(2-(2-adamantylamino)-2-oxoethyl)-2-oxo-1,2-dihydropyridin-3-yl)-2-(3-methylbenzofuran-2-carboxamido)-5-oxo-N6-pentylhexanediamide] | 40 to 400 | 3 to 5 | 1 to 10 |
| CNC(=O)C(=O)CC[C@H](NC(=O)C1CN2CCC1CC2)C(=O)Nc1cccn(CC(=O)NC2C3CC4CC(C3)CC2C4)c1=O (stereo partly drawn) [II-61, (S)-N1-(1-(2-(2-adamantylamino)-2-oxoethyl)-2-oxo-1,2-dihydropyridin-3-yl)-N6-methyl-5-oxo-2-(quinuclidine-3-carboxamido)hexanediamide] | 40 to 400 | 1 to 3 | < 1 |
| CNC(=O)C(=O)CC[C@H](NC(=O)c1cncn1C)C(=O)Nc1cccn(CC(=O)NC23CC4CC(C)(CC(C)(C4)C2)C3)c1=O [II-210, (S)-N1-(1-(2-(3,5-dimethyladamantane-1-amino)-2-oxoethyl)-2-oxo-1,2-dihydropyridin-3-yl)-N6-methyl-2-(1-methyl-1H-imidazole-5-carboxamido)-5-oxohexanediamide] | 40 to 400 | 1 to 3 | < 1 |
| CNC(=O)C(=O)CC[C@H](NC(=O)c1oc2ccccc2c1C)C(=O)Nc1cccn(CC(=O)NC2C3CC4CC2CC(Br)(C4)C3)c1=O (stereo partly drawn) [II-71, (S)-N1-(1-(2-(5-bromoadamantane-2-amino)-2-oxoethyl)-2-oxo-1,2-dihydropyridin-3-yl)-N6-methyl-2-(3-methylbenzofuran-2-carboxamido)-5-oxohexanediamide] | < 40 | 1 to 3 | 1 to 10 |
| CNC(=O)C(=O)CC[C@H](NC(=O)c1cc2ccccc2o1)C(=O)Nc1cccn(CC(=O)NC(C)C23CC4CC(CC(C4)C2)C3)c1=O (stereo partly drawn) [II-88] | 40 to 400 | 3 to 5 | < 1 |
| CNC(=O)C(=O)CC[C@H](NC(=O)c1cc(C)oc1C)C(=O)Nc1cccn(CC(=O)NC2C3CC4CC(C3)CC2C4)c1=O (stereo partly drawn) [II-37, (S)-2-(2,5-dimethylfuran-3-carboxamido)-N1-(1-(2-(2-adamantylamino)-2-oxoethyl)-2-oxo-1,2-dihydropyridin-3-yl)-N6-methyl-5-oxohexanediamide] | 40 to 400 | 1 to 3 | 1 to 10 |
| CNC(=O)C(=O)CC[C@H](NC(=O)c1cc(Cl)sc1Cl)C(=O)Nc1cccn(CC(=O)N[C@H]2C[C@H]3CC[C@]2(C)C3(C)C)c1=O [II-160, (S)-2-(2,5-dichlorothiophene-3-carboxamido)-N6-methyl-5-oxo-N1-(2-oxo-1-(2-oxo-2-((1R,2S,4R)-1,7,7-trimethylbicyclo[2.2.1]heptan-2-ylamino)ethyl)-1,2-dihydropyridin-3-yl)hexanediamide] | 40 to 400 | 1 to 3 | 1 to 10 |
| CNC(=O)C(=O)CC[C@H](NC(=O)c1oc2ccccc2c1C)C(=O)Nc1cccn(CC(=O)N[C@@H]2C[C@H]3CC[C@]2(C)C3(C)C)c1=O [II-99, (S)-N1-methyl-5-(3-methylbenzofuran-2-carboxamido)-2-oxo-N6-(2-oxo-1-(2-oxo-2-((1R,2R,4R)-1,7,7-trimethylbicyclo[2.2.1]heptan-2-ylamino)ethyl)-1,2-dihydropyridin-3-yl)hexanediamide] | 40 to 400 | 3 to 5 | 1 to 10 |

The remaining lines, values ahead:

| IC50 [1] [nM] | logD [2] | Papp [3] [×10⁻⁶ cm/s] | Compound |
| --- | --- | --- | --- |
| 400 to 2500 | 3 to 5 | 1 to 10 | CC(C)(C)NC(=O)C(=O)CC[C@H](NC(=O)c1c[nH]c2ccccc12)C(=O)Nc1cccn(CC(=O)NC2C3CC4CC(C3)CC2C4)c1=O (stereo partly drawn) [II-176, (S)-N1-tert-butyl-5-(1H-indole-3-carboxamido)-N6-(1-(2-(2-adamantylamino)-2-oxoethyl)-2-oxo-1,2-dihydropyridin-3-yl)-2-oxohexanediamide] |
| 40 to 400 | 1 to 3 | < 1 | CNC(=O)C(=O)CC[C@H](NC(=O)c1cnsn1)C(=O)Nc1cccn(CC(=O)NC2C3CC4CC(C3)CC2C4)c1=O (stereo partly drawn) [II-142, (S)-N1-(1-(2-(2-adamantylamino)-2-oxoethyl)-2-oxo-1,2-dihydropyridin-3-yl)-N6-methyl-5-oxo-2-(1,2,5-thiadiazole-3-carboxamido)hexanediamide] |
| 40 to 400 | 1 to 3 | 1 to 10 | CNC(=O)C(=O)CC[C@H](NC(=O)c1coc2ccccc12)C(=O)Nc1cccn(CC(=O)NC2C3CC4CC(C3)CC2C4)c1=O (stereo partly drawn) [II-136, (S)-2-(benzofuran-3-carboxamido)-N1-(1-(2-(2-adamantylamino)-2-oxoethyl)-2-oxo-1,2-dihydropyridin-3-yl)-N6-methyl-5-oxohexanediamide] |
| 40 to 400 | 1 to 3 | 1 to 10 | CNC(=O)C(=O)CC[C@H](NC(=O)c1ccc(Cl)o1)C(=O)Nc1cccn(CC(=O)NC2C3CC4CC(C3)CC2C4)c1=O (stereo partly drawn) [II-26, (S)-2-(5-chlorofuran-2-carboxamido)-N1-(1-(2-(2-adamantylamino)-2-oxoethyl)-2-oxo-1,2-dihydropyridin-3-yl)-N6-methyl-5-oxohexanediamide] |
| 40 to 400 | 1 to 3 | 1 to 10 | CNC(=O)C(=O)CC[C@H](NC(=O)c1cc(Cl)sc1Cl)C(=O)Nc1cccn(CC(=O)N[C@@H]2C[C@H]3CC[C@@H]2C3)c1=O [II-128, (2S)-N1-(1-(2-((1R,2R,4S)-bicyclo[2.2.1]heptan-2-ylamino)-2-oxoethyl)-2-oxo-1,2-dihydropyridin-3-yl)-2-(2,5-dichlorothiophene-3-carboxamido)-N6-methyl-5-oxohexanediamide] |
| 400 to 2500 | < 1 | < 1 | CNC(=O)C(=O)CC[C@H](NC(=O)c1nccc2cnccc12)C(=O)Nc1cccn(CC(=O)NC23CCC(C2)C3)c1=O [II-188, (S)-N1-(1-(2-(bicyclo[2.1.1]hexan-1-ylamino)-2-oxoethyl)-2-oxo-1,2-dihydropyridin-3-yl)-N6-methyl-2-(2,6-naphthyridine-1-carboxamido)-5-oxohexanediamide] |
| 400 to 2500 | < 1 | < 1 | CNC(=O)C(=O)CC[C@H](NC(=O)c1nonc1N)C(=O)Nc1cccn(CC(=O)NC23CC(C2)C3)c1=O [II-189, (S)-2-(4-amino-1,2,5-oxadiazole-3-carboxamido)-N1-(1-(2-(bicyclo[1.1.1]pentan-1-ylamino)-2-oxoethyl)-2-oxo-1,2-dihydropyridin-3-yl)-N6-methyl-5-oxohexanediamide] |
| 40 to 400 | 1 to 3 | 1 to 10 | CNC(=O)C(=O)CC[C@H](NC(=O)c1oc2ccccc2c1C)C(=O)Nc1cccn(CC(=O)NC2C3CCC2CC3)c1=O (stereo partly drawn) [II-96, (S)-N1-(1-(2-(bicyclo[2.2.1]heptan-7-ylamino)-2-oxoethyl)-2-oxo-1,2-dihydropyridin-3-yl)-N6-methyl-2-(3-methylbenzofuran-2-carboxamido)-5-oxohexanediamide] |
| 40 to 400 | 3 to 5 | 1 to 10 | CNC(=O)C(=O)CC[C@H](NC(=O)c1oc2ccccc2c1C)C(=O)Nc1cccn(CC(=O)N[C@H]2C[C@H]3C[C@@H]([C@@H]2C)C3(C)C)c1=O [II-101, (S)-N1-methyl-5-(3-methylbenzofuran-2-carboxamido)-2-oxo-N6-(2-oxo-1-(2-oxo-2-((1S,2S,3S,5R)-2,6,6-trimethylbicyclo[3.1.1]heptan-3-ylamino)ethyl)-1,2-dihydropyridin-3-yl)hexanediamide] |
